Laboratory results published in patent US20240262865A1, “Calcium independent phosphatidylserine binding compounds for detecting phosphatidylserine positive cells” (priority 2023, published 2024).
BODIPY = fluorogenic core (…diaza-s-indacene), attached to Trp by a spacer-free C—C linkage

B1: Annexin V: recombinant protein, PS binding agent binding PS in the presence of calcium; used as Alexa 647 conjugate (protein, UniProt P08758 2-320, looked up)
Annexin A5: AQVLRGTVTDFPGFDERADAETLRKAMKGLGTDEESILTLLTSRSNAQRQEISAAFKTLFGRDLLDDLKSELTGKFEKLIVALMKPSRLYDAYELKHALKGAGTNEKVLTEIIASRTPEELRAIKQVYEEEYGSSLEDDVVGDTSGYYQRMLVVLLQANRDPDAGIDEAQVEQDAQALFQAGELKWGTDEEKFITIFGTRSVSHLRKVFDKYMTISGFQIEETIDRETSGNLEQLLLAVVKSIRSIPAYLAETLYYAMKGAGTDDHTLIRVMVSRSEIDLFNIRKEFRKNFATSLYSMIKGDTSGDYKKALLLLCGEDD
modifications: Alexa 647 label
notes: used as Alexa 647 conjugate

Experiments:
[1] = tested on: PS positive cells; test: Flow cytometry staining of PS positive cells on one day old mouse thymocytes, side by side with Apotracker Green and Annexin V; assay type: cell-based; conditions: one day old C57BL/6 mouse thymocytes, Atto 647 Item-2 28 pM/test and Apotracker 400 nM/test in PBS without Ca2+, Alexa 647 Annexin V in Annexin V binding buffer, Sytox Blue
Description: Whether an agent is considered to be a PS binding agent or to have a PS binding activity, it can be determined by using a flow cytometer to detect the PS binding activity of said agent which has been illustrated in the art. Thereby, PS positive cells can be used in such an assay, wherein the number of stained cells may be compared to the reference agent Apotracker Green and/or Annexin V, in accordance with the present invention.
To validate the Atto 647 Item-2 by flow cytometry, one day old C57BLU6 mouse thymocytes were side by side incubated with 28 pM/test of Atto 647 Item-2 and Sytox Blue or 400 nM/test of Apotracker and Sytox Blue in PBS without Ca^2+ or 5 μLtest of Alexa 647 Annexin V and of Sytox Blue in Annexin V binding buffer for 15 minutes at room temperature, then the cells were analyzed with NovoCyte Quanteon flow cytometry without wash. Debris were gated out based on cell density plot in a lower level of forward scatter. The two-parameter density plots show Atto 647 Item-2 or Apotracker Green or Annexin V versus Sytox Blue. Sytox Blue is an impermeant blue-emitting nucleic acid indicator which is used for indicating the dead cells. Sytox Blue was used at 20 nM/test in herein.
The cells were analyzed with NovoCyte Quanteon flow cytometry without wash.

[2] = tested on: PS positive cells; test: Flow cytometry of Atto 647 Item-2 stained U937 cells before and after 2% PFA fixation; assay type: cell-based; conditions: U937 cells in PBS without Ca2+
Description: In order to validate if the PS positive cells stained with Atto 647 Item-2 are fixable, the fresh and 2 days IL-4 stimulated U937 cells were simultaneously stained with 28 pM/test of Atto 647 Item-2 and 20 nM of Sytox Blue, then the cells were split into two sets. One set of cells were analyzed with flow cytometry right after staining without wash, the other set of cells were fixed by adding 16% of Paraformaldehyde (PFA) to the final concentration at 2% PFA for 10 minutes at room temperature followed by centrifugation at 350 g for 5 minutes. Then the cells were resuspended in PBS without Ca^2+. The fresh cells and stimulated cells with or without fixation were analyzed on day 0 and day 2 respectively. The cells were analyzed with NovoCyte Quanteon flow cytometry without wash.

Molecule | staining pattern and frequencies of PS positive dying cells and dead cells [1] | calcium dependence of PS binding [2]
Apotracker Green: cyclic peptide of SEQ ID NO: 1 [RKKWFW(BODIPY)G]; calcium-independent PS binding agent, commercial name Apotracker Green (cyclo(RKKWFW(BODIPY)G)) [reference compound] | comparable to each other | –
Item-2: PS binding compound derivative comprising SEQ ID NO: 2 [RKKWFWC], head-to-tail cyclized (head-to-tail cyclized) | – | Ca^2+ independent
B1 | comparable to each other | –
